According to patent US20120010075A1 (priority 2009, published 2012):

How the values were obtained:
[1] = system: Leptosphaeria nodorum (LEPTNO); test: In vitro fungitoxicity of hydrazones with and without copper towards Leptosphaeria nodorum (Example 26); assay type: cell-based; conditions: test compound Concn. 0.05 μg/mL, 72 h at 25° C.; for inhibition of growth at 0.05 µg/mL: Parastagonospora nodorum, 72 h, copper-minus medium, read-out: LEPTNO % Inhn. Minus Copper Observed; for LEPTNO % Inhn. Plus Copper Observed: copper-plus medium (CuCl2 10 μM)
[2] = system: Phytophthora infestans; assay type: in vivo, Phytophthora infestans on tomato; conditions: hydrazone 50 ppm with 50 μM CuCl2.2H2O, applied 24 h before inoculation; assessed 7 days after inoculation; tomato late blight

| SMILES | inhibition of growth at 0.05 µg/mL [1] [%] | LEPTNO % Inhn. Plus Copper Observed [1] [%] | TLB % Control [2] [%] | melting point [°C] |
| --- | --- | --- | --- | --- |
| Cc1ccc(C(=O)N/N=C/c2cc(Cl)cc(Br)c2O)cc1 [Example 413] | 18.9 | 97.9 | 94.0 | 279 to 282 |
| O=C(N/N=C/c1cc(Cl)cc(Br)c1O)c1cccc(F)c1 [Example 414] | 14.6 | 97.9 | 90.0 | 209 to 215 |
| O=C(N/N=C/c1cc(Cl)cc(Br)c1O)c1ccc(F)cc1 [Example 415] | 2.9 | 96.1 | 100.0 | 200 to 211 |
| O=C(N/N=C/c1cc(Cl)cc(Br)c1O)c1cccc([N+](=O)[O-])c1 [Example 416] | 4.3 | 97.5 | 93.0 | 167 to 226 |
| O=C(N/N=C/c1cc(Cl)cc(Br)c1O)c1ccc([N+](=O)[O-])cc1 [Example 417] | 10.7 | 98.2 | 100.0 | 237 to 250 |
| O=C(N/N=C/c1cc(Cl)cc(Br)c1O)c1ccccc1C(F)(F)F [Example 418] | 0 | 97.3 | 93.0 | 266 to 274 |
| Cc1cccc(C(=O)N/N=C/c2cc(Cl)ccc2O)c1 [Example 419] | 3.2 | 94.9 | 90.0 | 188 to 196 |
| O=C(N/N=C/c1cc(Cl)ccc1O)c1cccc(F)c1 [Example 420] | 11.4 | 97.5 | 100.0 | 205 to 224 |
| O=C(N/N=C/c1cc(Cl)ccc1O)c1ccc(F)cc1 [Example 421] | 8.2 | 96.6 | 94.0 | 234 to 243 |
| O=C(N/N=C/c1cc(Cl)ccc1O)c1ccccc1C(F)(F)F [Example 422] | 0 | 95.5 | 90.0 | 154 to 164 |
| Cc1cccc(C(=O)N/N=C/c2cccc(Cl)c2O)c1 [Example 423] | 0.8 | 98.0 | 98.0 | 166 to 169 |
| Cc1ccc(C(=O)N/N=C/c2cccc(Cl)c2O)cc1 [Example 424] | 22.3 | 97.0 | 100.0 | 230 to 232 |
| O=C(N/N=C/c1cccc(Cl)c1O)c1cccc(F)c1 [Example 425] | 17.5 | 97.6 | 95.0 | 178 to 184 |
| O=C(N/N=C/c1cccc(Cl)c1O)c1ccc(F)cc1 [Example 426] | 34.8 | 97.3 | 98.0 | 194 to 198 |
| O=C(N/N=C/c1cccc(Cl)c1O)c1cccc([N+](=O)[O-])c1 [Example 429] | 10.4 | 97.4 | 94.0 | 236 to 239 |
| O=C(N/N=C/c1cccc(Cl)c1O)c1ccc([N+](=O)[O-])cc1 [Example 430] | 16.6 | 98.2 | 100.0 | 284 to 287 |
| O=C(N/N=C/c1cccc(Cl)c1O)c1ccccc1O [Example 431] | 8.5 | 95.1 | 91.0 | 266 to 268 |
| O=C(N/N=C/c1cccc(Cl)c1O)c1ccccc1C(F)(F)F [Example 432] | 0 | 95.9 | 72.0 | 118 to 121 |
| Cc1ccc(C(=O)N/N=C/c2cccc(Cl)c2O)c(O)c1 [Example 433] | 10.8 | 97.8 | 100.0 | 258 to 266 |
| Cc1ccc(C(=O)N/N=C/c2cc(Cl)cc(Br)c2O)c(O)c1 [Example 434] | 25.6 | 97.4 | 100.0 | 262 to 268 |
| Cc1cccc(C(=O)N/N=C/c2cc(C(F)(F)F)ccc2O)c1 [Example 435] | 4.7 | 97.2 | 100.0 | 192 to 194 |

| SMILES | inhibition of growth at 0.05 µg/mL [1] [%] | LEPTNO % Inhn. Plus Copper Observed [1] [%] | TLB % Control [2] [%] | melting point [°C] |
| --- | --- | --- | --- | --- |
| Cc1ccc(C(=O)N/N=C/c2cc(C(F)(F)F)ccc2O)cc1 [Example 436] | 14.6 | 98.2 | 94.0 | 245 to 249 |
| O=C(N/N=C/c1cc(C(F)(F)F)ccc1O)c1cccc(F)c1 [Example 437] | 9.2 | 97.0 | 100.0 | 188 to 196 |
| O=C(N/N=C/c1cc(C(F)(F)F)ccc1O)c1ccc(F)cc1 [Example 438] | 0 | 94.2 | 98.0 | 229 to 231 |
| O=C(N/N=C/c1cc(C(F)(F)F)ccc1O)c1cccc(Cl)c1 [Example 439] | 0 | 100.0 | 96.0 | 187 to 197 |
| O=C(N/N=C/c1cc(C(F)(F)F)ccc1O)c1cccc([N+](=O)[O-])c1 [Example 441] | 0 | 100.0 | 96.0 | 218 to 220 |
| O=C(N/N=C/c1cc(C(F)(F)F)ccc1O)c1ccc([N+](=O)[O-])cc1 [Example 442] | 0 | 100.0 | 98.0 | 259 to 265 |
| O=C(N/N=C/c1cc(C(F)(F)F)ccc1O)c1ccccc1C(F)(F)F [Example 444] | 0 | 100.0 | 91.0 | 174 to 176 |
| Cc1ccc(C(=O)N/N=C/c2cc(C(F)(F)F)ccc2O)c(O)c1 [Example 445] | 13.2 | 100.0 | 90.0 | 264 to 271 |
| Cc1ccc(C(=O)N/N=C/c2cc(Cl)ccc2O)c(O)c1 [Example 446] | 23.5 | 95.4 | 57.0 | 282 to 286 |
| Cc1cccc(C(=O)N/N=C/c2c(C(F)(F)F)ccc(Cl)c2O)c1 [Example 447] | 20 | 96.6 | 100.0 | 219 to 221 |
| Cc1ccc(C(=O)N/N=C/c2c(C(F)(F)F)ccc(Cl)c2O)cc1 [Example 448] | 27.1 | 97.5 | 100.0 | 216 to 218 |
| O=C(N/N=C/c1c(C(F)(F)F)ccc(Cl)c1O)c1cccc(F)c1 [Example 449] | 7.2 | 98.5 | 92.0 | 227 to 229 |
| O=C(N/N=C/c1c(C(F)(F)F)ccc(Cl)c1O)c1ccc(F)cc1 [Example 450] | 1.1 | 93.5 | 100.0 | 231 to 233 |
| O=C(N/N=C/c1c(C(F)(F)F)ccc(Cl)c1O)c1cccc(Cl)c1 [Example 451] | 4.6 | 100.0 | 100.0 | 242 to 245 |
| O=C(N/N=C/c1c(C(F)(F)F)ccc(Cl)c1O)c1cccc([N+](=O)[O-])c1 [Example 453] | 5.6 | 100.0 | 100.0 | 277 to 279 |
| O=C(N/N=C/c1c(C(F)(F)F)ccc(Cl)c1O)c1ccc([N+](=O)[O-])cc1 [Example 454] | 12.4 | 100.0 | 100.0 | 305 to 307 |
| Cc1ccc(C(=O)N/N=C/c2c(C(F)(F)F)ccc(Cl)c2O)c(O)c1 [Example 457] | 6.7 | 100.0 | 100.0 | 258 to 260 |
| C/C(=N\NC(=O)c1ccc(Br)cc1)c1ccccc1O [Example 458] | 3.7 | 96.6 | 46.0 | 218 to 221 |
| COc1ccc(C(=O)N/N=C(\C)c2ccc(Cl)cc2O)cc1 [Example 459] | 7.3 | 96.9 | 20.0 | 262 to 263 |
| C/C(=N\NC(=O)c1ccc(Br)cc1)c1ccc(Cl)cc1O [Example 460] | 0 | 97.6 | 39.0 | 258 to 259 |
| C/C(=N\NC(=O)c1ccc(C(F)(F)F)cc1)c1ccc(Cl)cc1O [Example 461] | 3.4 | 96.7 | 54.0 | 244 to 245 |
